Test results: ChEMBL document CHEMBL4296183, “CO-ADD screening of NIH NCI Natural Product Set III” (2020)
Converted amounts (≈) assume the structure as drawn. Structures can show the parent of a compound that is named as a salt.

Tests used:
Klebsiella pneumoniae = assay: microbe, parasite or virus in culture; conditions: ATCC 700603, 18 h, ASSAY_TEST Inhibition of Bacterial Growth, detection method Absorption (OD600), MEDIA CAMHB, plate type 384well, NBS, CORNING #3640
Description: Antibacterial activity against Klebsiella pneumoniae MDR ATCC 70063 (CO-ADD:GN_003); MIC in CAMBH media using NBS plates, by OD(600)

Pseudomonas aeruginosa = assay: microbe, parasite or virus in culture; conditions: ATCC 27853, 18 h, ASSAY_TEST Inhibition of Bacterial Growth, detection method Absorption (OD600), MEDIA CAMHB, plate type 384well, NBS, CORNING #3640
Description: Antibacterial activity against Pseudomonas aeruginosa ATCC 27853 (CO-ADD:GN_042); MIC in CAMBH media using NBS plates, by OD(600)

Escherichia coli = assay: microbe, parasite or virus in culture; conditions: ATCC 25922, 18 h, ASSAY_TEST Inhibition of Bacterial Growth, detection method Absorption (OD600), MEDIA CAMHB, plate type 384well, NBS, CORNING #3640
Description: Antibacterial activity against Escherichia coli ATCC 25922 (CO-ADD:GN_001); MIC in CAMBH media using NBS plates, by OD(600)

Candida albicans = assay: microbe, parasite or virus in culture; conditions: ATCC 90028, ASSAY_TEST Inhibition of Fungal Growth, detection method Absorption (OD530), plate type 384well, NBS, CORNING #3640
Description: Antifungal activity against Candida albicans ATCC 90028 (CO-ADD:FG_001); MIC in YNB media using NBS plates, by OD630

Staphylococcus aureus = assay: microbe, parasite or virus in culture; conditions: ATCC 43300, 18 h, ASSAY_TEST Inhibition of Bacterial Growth, detection method Absorption (OD600), MEDIA CAMHB, plate type 384well, NBS, CORNING #3640
Description: Antibacterial activity against Staphylococcus aureus MRSA ATCC 43300 (CO-ADD:GP_020); MIC in CAMBH media, using NBS plates, by OD(600)

HEK293 = assay: cells; type: functional; conditions: Homo sapiens, ATCC CRL1573, HEK293; ASSAY_TEST Inhibition of Cell Viability; detection method Resazurin; Fluorescence (ex560/em590); MEDIA DMEM with 10% FBS; plate type 384well; TC; CORNING #3712; time 18 hr
Acinetobacter baumannii = assay: microbe, parasite or virus in culture; conditions: ATCC 19606, 18 h, ASSAY_TEST Inhibition of Bacterial Growth, detection method Absorption (OD600), MEDIA CAMHB, plate type 384well, NBS, CORNING #3640
Description: Antibacterial activity against Acinetobacter baumannii ATCC 19606 (CO-ADD:GN_034); MIC in CAMBH media using NBS plates, by OD600

Description for Cryptococcus neoformans: Antifungal activity against Cryptococcus neoformans H99 ATCC 208821 (CO-ADD:FG_002); MIC in YNB media using NBS plates, by Resazurin OD(600-570)

Compound	MIC (Klebsiella pneumoniae) [µM]	MIC (Pseudomonas aeruginosa) [µM]	MIC (Escherichia coli) [µM]	MIC (Candida albicans) [µM]	MIC (Cryptococcus neoformans) [µM]	MIC (Staphylococcus aureus) [µM]	CC50 (HEK293) [µM]	MIC (Acinetobacter baumannii) [µM]
CC1/C=C/C=C/CC/C=C/C=C/C=C/C=C/C(OC2OC(C)C(O)C(N)C2O)CC2OC(CC(O)C(O)CCC(O)CC(O)CC(O)CC(=O)OC(C)C(C)C1O)CC(O)C2C(=O)O (centres undefined)	> 10	> 10	> 10	5 (≈ 4.55 µg/mL)	5 (≈ 4.55 µg/mL)	> 10	> 10	> 10
N#Cc1cn(C2OC(CO)C(O)C2O)c2ncnc(N)c12 (centres undefined)	> 10	> 10	> 10	0.312 (≈ 0.091 µg/mL)	> 10	> 10	> 10	> 10
O=c1ccc2nc3ccc(O)cc3oc-2c1	> 10	> 10	> 10	> 10	> 10	> 10	> 10	> 10
COc1cc2cc(c1Cl)N(C)C(=O)C[C@H](OC(=O)[C@H](C)N(C)C(C)=O)[C@]1(C)O[C@H]1[C@H](C)[C@@H]1C[C@@](O)(NC(=O)O1)[C@H](OC)/C=C/C=C(\C)C2 [MAYTANSINE]	> 10	> 10	> 10	> 10	0.625 (≈ 0.433 µg/mL)	> 10	> 10	> 10
C[C@H](N)C(=O)N[C@@H]1[C@H]2C(=C(O)C[C@@H](O)[C@@H]2O)C(=O)O[C@]1(C)C(Cl)Cl [BACTOBOLIN]	> 10	> 10	5 (≈ 1.92 µg/mL)	> 10	> 10	1.25 (≈ 0.479 µg/mL)	0.396	> 10
N#C[C@H](OC1OC(COC2OC(CO)C(O)C(O)C2O)C(O)C(O)C1O)c1ccccc1 (some centres undefined)	> 10	> 10	> 10	> 10	> 10	> 10	> 10	> 10
CN(C)[C@@H]1C(O)=C(C(N)=O)C(=O)[C@@]2(O)C(O)=C3C(=O)c4c(O)ccc(Cl)c4[C@@](C)(O)[C@H]3C[C@@H]12 [CHLORTETRACYCLINE HYDROCHLORIDE]	> 10	2.5	5	> 10	> 10	1.25	> 10	> 10
CSC1SCC2C(=O)N(C)C(C(C)C)C(=O)OCC(NC(=O)c3cnc4ccccc4n3)C(=O)NC(C)C(=O)N(C)C1C(=O)N(C)C(C(C)C)C(=O)OCC(NC(=O)c1cnc3ccccc3n1)C(=O)NC(C)C(=O)N2C (centres undefined)	> 10	1.25 (≈ 1.38 µg/mL)	2.5 (≈ 2.75 µg/mL)	> 10	2.5 (≈ 2.75 µg/mL)	≤ 0.0781	> 10	> 10
COC1=C2C[C@@H](C)C[C@@H](OC)[C@@H](O)[C@H](C)/C=C(\C)[C@@H](OC(N)=O)[C@H](OC)/C=C\C=C(/C)C(=O)NC(=CC1=O)C2=O	> 10	> 10	> 10	> 10	> 10	> 10	> 10	> 10
COC[C@H]1OC(=O)c2coc3c2[C@@]1(C)C1=C(C3=O)[C@@H]2CCC(=O)[C@@]2(C)C[C@H]1OC(C)=O [WORTMANNIN]	> 10	> 10	> 10	0.625 (≈ 0.268 µg/mL)	5 (≈ 2.14 µg/mL)	> 10	7.83	> 10
CC1=C2C(=CC(C)(C)[C@@H]2O)C(=O)[C@](C)(O)C12CC2 [ILLUDIN M]	> 10	> 10	> 10	> 10	> 10	> 10	0.114	> 10
CC(=O)C(=O)NC1/C=C(C)\C=C/C(O)C/C=C(C)\C=C/C(O)CC2OC(=O)C1(C)C(=O)C2C (centres undefined)	> 10	> 10	> 10	> 10	> 10	10 (≈ 4.6 µg/mL)	> 10	> 10
COC1=C(N)C(=O)c2nc(-c3nc(C(=O)O)c(C)c(-c4ccc(OC)c(OC)c4O)c3N)ccc2C1=O [STREPTONIGRIN]	> 10	10 (≈ 5.06 µg/mL)	5 (≈ 2.53 µg/mL)	0.156 (≈ 0.0792 µg/mL)	1.25 (≈ 0.633 µg/mL)	≤ 0.0781	0.115	> 10
CCC(C(=O)C(C)C(O)C(C)CCc1ccc(C)c(O)c1C(=O)O)C1OC(CC)(C2CCC(O)(CC)C(C)O2)CC1C (centres undefined)	> 10	> 10	> 10	> 10	> 10	0.312 (≈ 0.185 µg/mL)	> 10	> 10
COc1cc2oc3cc(=O)cc4oc(-c5ccccc5)cc(c2c2c1CCC(c1ccccc1)O2)c43 (centres undefined)	> 10	> 10	> 10	> 10	> 10	> 10	> 10	> 10
CC1OC(CC(=O)O)CC2=C1C(=O)c1c(O)cccc1C2=O (centres undefined) [NANAOMYCIN]	> 10	> 10	> 10	0.625 (≈ 0.189 µg/mL)	1.25 (≈ 0.378 µg/mL)	0.312 (≈ 0.0945 µg/mL)	0.188	> 10
C=C(C)[C@H]1Cc2c(ccc3c2O[C@@H]2COc4cc(OC)c(OC)cc4[C@@H]2C3=O)O1 [ROTENONE]	> 10	> 10	> 10	> 10	10 (≈ 3.94 µg/mL)	> 10	> 10	> 10
Cc1c2ccncc2c(C)c2c1[nH]c1ccccc12 [ELLIPTECINE]	> 10	> 10	> 10	> 10	10 (≈ 2.46 µg/mL)	10 (≈ 2.46 µg/mL)	1.13	> 10
CC[C@H](C)c1occ2c(O)c(C(=O)O)c(=O)cc-2c1C	> 10	> 10	> 10	> 10	> 10	> 10	> 10	> 10
COc1cccc2c1C(=O)c1c(O)c3c(c(O)c1C2=O)C[C@@](O)(C(C)=O)C[C@@H]3OC1CC(N)C(O)C(C)O1 (some centres undefined)	> 10	> 10	> 10	> 10	> 10	5 (≈ 2.64 µg/mL)	0.613	> 10
CC1COC2C3=C(C(=O)C=CC3=O)C3OC(=O)C4CC5CCC1C5C2C43 (centres undefined)							1.18	
CC1OC(=O)C(C(C)C)NC(=O)C(C(C)C)OC(=O)C(C(C)C)NC(=O)C(C)OC(=O)C(C(C)C)NC(=O)C(C(C)C)OC(=O)C(C(C)C)NC(=O)C(C)OC(=O)C(C(C)C)NC(=O)C(C(C)C)OC(=O)C(C(C)C)NC1=O (centres undefined)	> 10	> 10	> 10	0.625 (≈ 0.695 µg/mL)	> 10	> 10	> 10	> 10
COC1/C=C/O[C@@]2(C)Oc3c(C)c(O)c4c(O)c(cc(O)c4c3C2=O)NC(=O)/C(C)=C\C=C\[C@H](C)C(O)[C@@H](C)[C@@H](O)[C@@H](C)[C@H](OC(C)=O)[C@@H]1C (some centres undefined)	> 10	> 10	> 10	> 10	> 10	≤ 0.0781	> 10	> 10
COC1CC(CC2CCC(C)C(C(C)C(=O)O)O2)OC2(OC(C)(C3CCC(C)(C4OC(C5OC(O)(CO)C(C)CC5C)CC4C)O3)CC2C)C1C (centres undefined)	> 10	> 10	> 10	10 (≈ 7.25 µg/mL)	> 10	0.156 (≈ 0.113 µg/mL)	> 10	> 10
CC1Oc2cc3c(-c4c(O)cc(O)c5c(O)c6c(cc45)OC(C)C(C)C6=O)c(O)cc(O)c3c(O)c2C(=O)C1C (centres undefined)	> 10	> 10	> 10	> 10	> 10	5 (≈ 2.73 µg/mL)	5.78	> 10
CC1(C)CCC2=C(O1)c1ccccc1C(=O)C2=O [LAPACHONE]	> 10	> 10	> 10	> 10	> 10	> 10	> 10	> 10
CO[C@H](/C(C)=C/C=C/C(C)=C/c1coc(C)n1)[C@H](C)[C@H]1C[C@@H](O)[C@@]2(C)O[C@H]2/C=C/[C@@H](C)[C@@H]2C[C@@H](CC(=O)O2)C[C@H]2O[C@@H]2C(=O)O1	> 10	> 10	> 10	> 10	1.25 (≈ 0.782 µg/mL)	> 10	> 10	> 10
